The source of these data is patent US10259777B2, “(E)-3-(3,4-dihydroxyphenyl)-N-(prop-2-yn-1-yl)acrylamide for treatment of neurodegenerative diseases” (THE UNIVERSITY OF HONG KONG, priority 2015, dated 2019).

Structures are written as SMILES.

Data set [1] concerns primary rat midbrain neurons. The data set is described as follows: 6-OHDA-induced neurotoxicity in primary midbrain neurons, MTT and Hoechst 33342/PI staining. The following applies: 6-OHDA with or without PACA, MTT. Format: cell-based.
Data set [2] has as its system mouse model of Parkinson's disease. The data set is described as follows: MPTP-induced motor dysfunctions, rotarod and pole test. It is filed as in vivo, mice. The note with it: PACA 15 mg/kg p.o. and MPTP 25 mg/kg i.p. daily for seven days, rotarod and pole test at day-8. The protocol: FIG. 11. In vivo Effect of PACA on MPTP-induced motor dysfunctions in mice. (A) Study design. (B) Rotarod test. Mice were placed on horizontal drums (30 mm in diameter), rotating at a progressively increasing speed, from 4 to 32 rpm over a 5-min period. The time that each animal stayed on the rod before falling was measured. (C) Pole test. Mice were placed with facing head-up on the top of the 50 cm long metal rod (1 cm diameter). Total time for each animal to reach the base of the pole was recorded. Each mouse was tested for three times. The data were presented as Mean±SEM and analyzed by one-way ANOVA with post-hoc Dunnett test. *p<0.05; **, p<0.01.
The in vivo neuroprotective effect of PACA was evaluated in a mouse model of Parkinson's disease. Nineteen mice were randomly divided into three groups: control (n=5), receiving vehicle administrations; MPTP (n=7), receiving i.p. injection of MPTP (25 mg/kg) every afternoon for seven days; MPTP+PACA (n=7), receiving p.o administration of PACA (15 mg/kg) every morning and i.p. injection of MPTP (25 mg/kg) every afternoon for seven days. At day-8, the motor functions of mice were assessed by rotarod performance test and pole test.

The test system of the next data set is PC12 cells. Put plainly: 6-OHDA-induced nitric oxide production, DAF-FM Diacetate staining. It is filed as cell-based, rat. The following applies: 6-OHDA with PACA 5, 10, 20 and 50 μM. The method, then:
After the treatment with 6-OHDA alone or in combination with PACA at different concentrations, PC12 cells were stained with a fluorescent probe dihydroethidium (DHE) for the production of superoxide anion (A & B) and another fluorescent probe DAF-FM Diacetate for the production of nitric oxide ([…]), respectively. (A) Representative images of DHE-stained cells. 6-OHDA, 200 μM; PACA, 50 (B) PACA inhibited 6-OHDA-induced formation of superoxide ions. PC12 cells were treated with 6-OHDA alone or in combination with PACA for 6 h and subsequently stained with a probe DHE. The images were captured under a fluorescence microscope. The fluorescence was determined by ImageJ software. (C) Representative images of DAF-FM DA-stained cells. 6-OHDA, 200 μM; PACA, 50 μM. (D) PACA inhibited 6-OHDA-induced NO production. PC12 cells were treated with 6-OHDA alone or in combination with PACA for 6 h and subsequently stained with a probe DAF-FM DA. The images were captured under a fluorescence microscope. The fluorescence was determined by ImageJ software.
PC12 cells were treated with 6-OHDA alone or in combination with PACA at the concentrations of 5, 10, 20 and 50 μM. At the end of treatment, PC12 cells were then stained with a fluorescent probe dihydroethidium (DHE) for the production of superoxide anion and another fluorescent probe DAF-FM Diacetate for the production of nitric oxide, respectively.

Data set [3] in a line: Pharmacokinetic analysis of PACA after oral administration, plasma and brain, LC-MS/MS MRM. It is filed as in vivo, Sprague Dawley rats. The method, then: (A) HPLC-MS/MS detection of PACA. (B) Determination of PACA in mouse plasma. (C) Determination of PACA in mouse brain tissues. PACA (30 mg/kg) was orally administered into mice. Blood samples and brain tissues were collected after different times (0, 0.5, 1, 2, 3, 6, 9, 12 or 24 h). PACA was determined by liquid chromatography-mass spectrometric multiple reaction monitoring-based strategy.
Nine male Sprague Dawley rats with a body weight of 240-280 g were purchased from Laboratory Animal Unit, HKU. The animals were housed in a qualified facility run on a 12-hour light and dark cycle. The animals were allowed unrestricted access to food and water. The protocol for the animal studies was approved by Li Ka Shing Faculty of Medicine, University of Hong Kong. The rats were administered with PACA (30 mg/kg) in 50% propanediol in saline by oral gavage whereas the control animal received vehicle only. The rats were anesthetized by isoflurane at the time points of 0, 0.5, 1, 2, 3, 6, 9, 12 or 24 h. Blood samples were collected by cardiac puncture using pre-heparinized syringes and immediately transferred into the tubes containing acetonitrile for preventing esterase metabolism. Blood samples were centrifuged at 5700 rpm for 10 minutes at 4° C. to recover plasma. Brain tissues were excised after the removal of blood vessels, blotted dry with clean paper towels, and weighed. All samples were stored at −80° C. before use. HPLC separation was performed on a Phenomenex Synergi hydro-RP C18 reversed phase column (150 mm×4.6 mm, 4 m) (Torrance, Calif., USA) under the control of Agilent HLPC 1100 system (Santa Clara, Calif., USA). Gradient was set using mobile phase: A, water with 0.05% (v/v) formic acid, B, acetonitrile with 0.05% (v/v) formic acid as follows: 0-2.5 min, 40-50% B; 2.5-5.5 min, 50-80% B; 5.5-11.5 min, 80% B; 11.5-12 min, 80-40% B, 12-15 min, 40% B. Flow rate was constant at 0.7 mL/min. The column temperature was maintained at 30° C. Sample volume for injection was 20 μL. […] Multiple-reaction monitoring (MRM) detection was used for the quantitation of all analytes.

As to `C#CCNC(=O)/C=C/c1ccc(O)c(O)c1` [PACA, (E)-3-(3,4-dihydroxyphenyl)-N-(prop-2-yn-1-yl)acrylamide], the “6-OHDA neurotoxicity in primary rat midbrain neurons” value in data set [1] is listed as “attenuated 6-hydroxydopamine (6-OHDA) neurotoxicity”. For the same compound, in data set [2], the “protection against MPTP-induced motor dysfunctions” value is given as “effectively protected animals against MPTP-induced motor dysfunctions”. Further, in the data set with PC12 cells, the “6-OHDA-induced formation of NO” value is reported as “significantly attenuated”. For the same compound, the “bioavailability in plasma and brain tissues” value in data set [3] (after oral administration) is “rapidly bioavailable in plasma and brain tissues”. Further, in data set [3] (oral administration, 30 mg/kg), the “time to peak concentration in blood” value was not above 60 min and the “time to peak concentration in brain tissues” value is not above 60 min.
